# Reference: patent publication US20220380341A1, “INHIBITORS OF HIV-1 NEF FOR THE TREATMENT OF HIV DISEASE” (priority 2018, published 2022)
# Where two headings read alike, the source gives them in different places.
# Columns and labels:
# HIV-1NL4-3 = assay: HIV-1 infectivity assay in TZM-bl reporter cell line (LTR-luciferase, 48 h); assay type: cell-based; conditions: Human immunodeficiency virus 1, TZM-bl
# Outline: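 Nef-dependent infectivity in TZM-bl cells: HIV-1NL4-3 infection with 1 μM compound, luciferase read at 48 h, normalized against DMSO wild-type and Nef-defective controls. Compound cytotoxicity in uninfected cells measured by Cell Titer Blue.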
# TZM-bl cell line = assay type: cell-based; conditions: human, 1 μM
# Outline: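 TZM-bl cells (HIV-1 LTR-luciferase) infected with HIV-1NL4-3 with compound at 1 μM; luciferase read 48 h later. Percent inhibition normalized to DMSO wild-type infection (0%) and Nef-defective HIV-1 infection (100% of Nef-dependent effect). Viability in uninfected TZM-bl cells by Cell Titer Blue.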
# HIV-1 NefNL4-3 = HIV-1 NefNL4-3 (Human immunodeficiency virus type 1 group M subtype B, UniProt P03406, A33V/T15A/T51N/V11I); assay: Surface plasmon resonance binding to recombinant full-length Nef (NL4-3); conditions: for RU30/RUNef (extent of binding): response units at 30 μM relative to Nef immobilized on the SPR chip
# [1] = 48 h, Table 1, TZM-bl cells, 1 μM, 48 h, 100% = Nef-defective HIV-1, read-out: HIV-1 Infectivity % Inhibition Norm. to Δ-Nef @ 1 μM
# [2] = 1.0 μM, TZM-bl reporter cell line, Table 4, read-out: % Infectivity Inhibition
# [3] = KD, M, Table 4, SPR fit 2-step induced fit, KD = koff/kon × koff2/(koff2 + kon2)
# [4] = Nef NL4-3 Binding, SPR 2-state fitting KD, Table 1, 2-step induced-fit model
# [5] = Table 4, 2-step induced fit, T = 1/koff2
# [6] = read-out: Nef NL4-3 Binding, SPR 1:1 or 2-site fitting KD2, Table 1, 2-site fit, second component
# [7] = KD, M, Table 4, SPR fit 1:1 Langmuir, KD = koff/kon
# [8] = Table 4, 1:1 Langmuir fit, T = 1/koff
SMILES,inhibition at 1 µM (HIV-1NL4-3; [1]),Percent Viability @ 1 μM (TZM-bl cells) (TZM-bl cell line),Kd (HIV-1 NefNL4-3),inhibition at 1 µM (HIV-1NL4-3; [2]),% Cell Viability (TZM-bl cell line),Kd (HIV-1 NefNL4-3; [3]),Kd (HIV-1 NefNL4-3; [4]),"T, minutes (residence time) (HIV-1 NefNL4-3; [5])",Kd (HIV-1 NefNL4-3; [6]),RU30/RUNef (extent of binding) (HIV-1 NefNL4-3),Kd (HIV-1 NefNL4-3; [7]),"T, minutes (residence time) (HIV-1 NefNL4-3; [8])"
"Oc1c(CCc2ccc(F)cc2)c(CC2CCN(Cc3ccncc3)CC2)nn1-c1nc2ccccc2[nH]1 [Compound I-809, 1-(1H-1,3-benzodiazol-2-yl)-4-[2-(4-fluorophenyl)ethyl]-3-({1-[(pyridin-4-yl)methyl]piperidin-4-yl}methyl)-1H-pyrazol-5-ol]",14.1%,97.9%,2740 nM,,,,,,,,,
"Oc1c(CCc2ccc(F)cc2)c(CNCc2ccncc2)nn1-c1nc2ccccc2[nH]1 [Compound I-810, 1-(1H-1,3-benzodiazol-2-yl)-4-[2-(4-fluorophenyl)ethyl]-3-({[(pyridin-4-yl)methyl]amino}methyl)-1H-pyrazol-5-ol]",42.8%,101.3%,70.7 nM,42.8%,100%,3580 nM,3580 nM,5.97E + 00 minutes,3190 nM,3.75E- 03,,
"Oc1c(CCc2ccc(F)cc2)c(CNCc2cccnc2)nn1-c1nc2ccccc2[nH]1 [Compound I-811, 1-(1H-1,3-benzodiazol-2-yl)-4-[2-(4-fluorophenyl)ethyl]-3-({[(pyridin-3-yl)methyl]amino}methyl)-1H-pyrazol-5-ol]",8.3%,100.7%,559 nM,8.3%,100%,12600 nM,12600 nM,3.83E- 01 minutes,2380 nM,3.57E- 03,,
"Oc1c(CCC2CCN(c3ncc(F)cn3)CC2)c(C2CC2)nn1-c1nc2cc(Cl)ccc2[nH]1 [Compound I-901, 1-(5-chloro-1H-1,3-benzodiazol-2-yl)-3-cyclopropyl-4-{2-[1-(5-fluoropyrimidin-2-yl)piperidin-4-yl]ethyl}-1H-pyrazol-5-ol]",14.3%,105.0%,481 nM,14.3%,100%,0.0153 nM,0.0153 nM,2.46E + 05 minutes,,2.23E- 03,,
"COc1cc(N2CCC(CCc3c(C4CC4)nn(-c4nc5cc(Cl)ccc5[nH]4)c3O)CC2)nc(OC)n1 [Compound I-902, 1-(5-chloro-1H-1,3-benzodiazol-2-yl)-3-cyclopropyl-4-{2-[1-(2,6-dimethoxypyrimidin-4-yl)piperidin-4-yl]ethyl}-1H-pyrazol-5-ol]",13.8%,106.5%,6.58 nM,13.8%,100%,0.00367 nM,0.00367 nM,1.46E + 06 minutes,,7.18E- 03,,
"Oc1c(CCc2ccc(F)cc2)c(C2CCCN(CC(F)(F)F)C2)nn1-c1nc2ccccc2[nH]1 (stereo not drawn) [Compound I-1002, 1-(1H-1,3-benzodiazol-2-yl)-4-[2-(4-fluorophenyl)ethyl]-3-[1-(2,2,2-trifluoroethyl)piperidin-3-yl]-1H-pyrazol-5-ol]",22.7%,96.4%,,,,,,,1710 nM,,,
"Oc1c(CCc2ccc(F)cc2)c(C2CCN(CC(F)(F)F)CC2)nn1-c1nc2ccccc2[nH]1 [Compound I-1003, 1-(1H-1,3-benzodiazol-2-yl)-4-[2-(4-fluorophenyl)ethyl]-3-[1-(2,2,2-trifluoroethyl)piperidin-4-yl]-1H-pyrazol-5-ol]",42.3%,100.9%,1810 nM,,,,,,,,,
"Oc1c(CCc2ccc(F)cc2)c(CC2CCN(CC(F)(F)F)CC2)nn1-c1nc2ccccc2[nH]1 [Compound I-1004, 1-(1H-1,3-benzodiazol-2-yl)-4-[2-(4-fluorophenyl)ethyl]-3-{[1-(2,2,2-trifluoroethyl)piperidin-4-yl]methyl}-1H-pyrazol-5-ol]",-12.3%,101.3%,354 nM,0%,100%,,,,,2.27E- 03,354 nM,2.82E + 01 minutes
"Oc1c(CC2CCN(CC(F)(F)F)CC2)c(-c2ccc(C(F)(F)F)cc2)nn1-c1nc2ccccc2[nH]1 [Compound I-1005, 1-(1H-1,3-benzodiazol-2-yl)-4-{[1-(2,2,2-trifluoroethyl)piperidin-4-yl]methyl}-3-[4-(trifluoromethyl)phenyl]-1H-pyrazol-5-ol]",49.2%,93.5%,91 nM,49.2%,93.5%,,,,,1.26E- 03,91 nM,9.47E + 00 minutes
